# Experimental data from PubChem BioAssay (NCI).
# Where “and” joins values, the source holds several entries; their conditions need not be identical. Equal entries are not always repeated.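 Where inhibition never reached the appropriate level, the endpoint shown equals the highest concentration tested. Otherwise, values were interpolated linearly from a five-concentration, 48-hour dose response in 96-well plates. GI50 is the concentration that inhibits growth by half. At the TGI there is no net growth.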
# Tests used:
# Test in all cases: NCI tumour cell line growth inhibition, 48 h
# 786-0 renal = tested on: 786-0 renal
# HOP-92 NSCLC = tested on: HOP-92 NSCLC
# LOX IMVI melanoma = tested on: LOX IMVI melanoma
# OVCAR-8 ovarian = tested on: OVCAR-8 ovarian
# SF-539 CNS = tested on: SF-539 CNS
# SK-MEL-2 melanoma = tested on: SK-MEL-2 melanoma
# COLO 205 colon = tested on: COLO 205 colon
# OVCAR-3 ovarian = tested on: OVCAR-3 ovarian
# RXF 393 renal = tested on: RXF 393 renal
# T-47D breast = tested on: T-47D breast
Structure (SMILES),TGI (786-0 renal),TGI (HOP-92 NSCLC) [µM],TGI (LOX IMVI melanoma),TGI (OVCAR-8 ovarian) [µM],TGI (SF-539 CNS) [µM],GI50 (SK-MEL-2 melanoma) [µM],TGI (COLO 205 colon) [µM],TGI (OVCAR-3 ovarian) [µM],TGI (RXF 393 renal) [µM],GI50 (786-0 renal) [µM],GI50 (COLO 205 colon) [µM],GI50 (HOP-92 NSCLC) [µM],GI50 (OVCAR-8 ovarian) [µM],GI50 (RXF 393 renal) [µM],GI50 (SF-539 CNS) [µM],TGI (SK-MEL-2 melanoma) [µM],GI50 (T-47D breast) [µM],TGI (T-47D breast) [µM],GI50 (LOX IMVI melanoma) [µM],GI50 (OVCAR-3 ovarian) [µM]
COc1cc(C(=O)N[C@H]2CCc3cc(OC)c(OC)c(OC)c3-c3ccc(SC)c(=O)cc32)cc(OC)c1OC,25 µM and 16.3 µM,25,25 µM and 19.2 µM,0.0478,0.0145,0.02,–,–,–,–,–,–,–,–,–,–,–,–,–,–
CC1(C)COC2C(N(Cc3ccccc3)Cc3ccccc3)C(=O)N21 (centres undefined),> 100 µM,80.5,> 100 µM,> 100,69.8,–,61.8,> 100,42.5,–,–,–,–,–,–,–,–,–,–,–
CC(=O)/C=C/c1ccc(Nc2c3ccccc3nc3occ(Cl)c23)cc1,17.2 µM,29.4,–,4.64,22.9,42.6,19.5,–,7.15,3.17,4.46,4.51,2.03,0.497,4.52,> 100,4.82,76.3,–,–
COc1cccc(CNc2ncnc3c2ncn3C2OC(CO)C(O)C2O)c1O (centres undefined),> 100 µM,–,> 100 µM,> 43,1.85,0.656,31.1,4.11,0.36,0.27,0.702,–,0.0679,0.0438,0.144,> 100,0.0549,–,0.0616,0.539
CC(/C=C/C(O)=C1/C(=O)CNC1=O)=C\[C@@H](C)[C@H]1O[C@@]2(C)O[C@H](C(=O)[C@@H]3O[C@@]32C)[C@@H]1C,36.5 µM,–,33.5 µM,46.4,40,–,43.6,44.6,25.3,–,–,–,–,–,–,50.1,–,37.3,–,–
CCOC(=O)C1Cc2ccc3c4c(ccc(c24)C1)CC(C(=O)OCC)C3,> 100 µM,> 100,> 100 µM,> 100,> 100,–,> 100,> 100,> 100,–,–,–,–,–,–,> 100,–,–,–,–
COC(=O)c1cc(=O)nc2cc3cccccc3n12,> 100 µM,–,> 100 µM,> 100,> 100,–,> 100,> 100,> 100,–,–,–,–,–,–,–,–,–,–,–
CC1=Nc2ccccc2SC(c2c(Cl)cccc2Cl)C1 (centres undefined),1.49 µM,3.62,1.04 µM,0.588,2.72,–,3.12,0.885,2.69,–,–,–,–,–,–,–,–,–,–,–
CC1CC2(S(=O)(=O)c3ccccc3)ON1CC2S(=O)(=O)c1ccccc1 (centres undefined),> 100 µM,–,> 100 µM,> 100,> 100,–,> 100,> 100,> 100,–,–,–,–,–,–,> 100,–,–,–,–
CC(C)(C)[Si](C)(C)OC1[C@@H](CNC(N)=O)O[C@@H](n2cnc3c(NC(=O)Nc4ccccc4)ncnc32)[C@H]1O[Si](C)(C)C(C)(C)C (some centres undefined),8.17 µM,–,1.56 µM,7.32,13.6,7.09,2.7,2.31,7.02,2.22,1.23,–,1.77,1.95,6.73,14.9,7.56,14.2,0.856,1.12
COC(=O)C(=O)C(CC(=O)Nc1ccc(C)cc1)C(=O)OC (centres undefined),> 100 µM,> 100,> 100 µM,> 100,> 100,–,–,> 100,> 100,–,–,–,–,–,–,> 100,–,–,–,–
CN/N=C(/c1nc2ccc([N+](=O)[O-])cc2[nH]c1=O)C(O)c1ccc(C(O)/C(=N\NC)c2nc3ccc([N+](=O)[O-])cc3[nH]c2=O)cc1 (centres undefined),> 100 µM,> 100,> 100 µM,> 100,> 100,–,> 100,> 100,> 100,–,–,–,–,–,–,> 100,–,–,–,–
CCCC(=O)N[C@H]1CCc2cc(OC)c(OC)c(OC)c2-c2ccc(SC)c(=O)cc21,63.1 µM,2.51,> 100 µM,> 15.8,< 0.01,–,< 0.01,< 0.0423,–,–,–,–,–,–,–,–,–,> 100,–,–
C#CCN(N=O)C(=O)ON1C(=O)CCC1=O,> 100 µM,> 100,> 100 µM,> 100,> 100,–,> 100,> 100,> 100,–,–,–,–,–,–,> 100,–,–,–,–
COc1ccc(/C=C2\CCC(CCN(C)C)(C3=CCCC3)C2=O)cc1 (centres undefined),28.7 µM,54.1,30.8 µM,34.9,30.8,–,25.9,49.7,22.7,–,–,–,–,–,–,32.9,–,–,–,–
O=C1c2ccccc2C(=O)C12CCc1ccccc12,> 100 µM,> 100,> 100 µM,> 100,–,–,> 100,> 100,> 100,–,–,–,–,–,–,–,–,–,–,–
COC(=O)C(C(=O)C(=O)Nc1ccc(C)cc1C)c1csc(-n2nc(-c3ccccc3)cc2-c2ccccc2)n1 (centres undefined),> 100 µM,> 100,> 100 µM,> 100,–,–,> 100,> 100,> 100,–,–,–,–,–,–,–,–,–,–,–
O=c1c2c(-c3ccccc3)c3ccccc3nc2cnn1-c1ccccc1,> 100 µM,> 100,> 100 µM,> 100,> 100,–,> 100,> 100,> 100,–,–,–,–,–,–,> 100,–,–,–,–
COc1cccc(-c2cc(=O)c3cc4c(cc3[nH]2)OCO4)c1,10.2 µM,> 100,> 100 µM,0.868,0.317,–,0.303,0.452,0.474,–,–,–,–,–,–,3.77,–,–,–,–
N=c1c2ccccc2sc2nc3ccccc3n12,> 100 µM,> 100,> 100 µM,> 100,> 100,–,> 100,–,> 100,–,–,–,–,–,–,> 100,–,–,–,–

Structure (SMILES),TGI (786-0 renal),TGI (HOP-92 NSCLC) [µM],TGI (LOX IMVI melanoma),TGI (OVCAR-8 ovarian) [µM],TGI (SF-539 CNS) [µM],GI50 (SK-MEL-2 melanoma) [µM],TGI (COLO 205 colon) [µM],TGI (OVCAR-3 ovarian) [µM],TGI (RXF 393 renal) [µM],GI50 (786-0 renal) [µM],GI50 (COLO 205 colon) [µM],GI50 (HOP-92 NSCLC) [µM],GI50 (OVCAR-8 ovarian) [µM],GI50 (RXF 393 renal) [µM],GI50 (SF-539 CNS) [µM],TGI (SK-MEL-2 melanoma) [µM],GI50 (T-47D breast) [µM],TGI (T-47D breast) [µM],GI50 (LOX IMVI melanoma) [µM],GI50 (OVCAR-3 ovarian) [µM]
COc1ccc(-c2cnnn2-c2nonc2-n2cccc2)cc1OC,> 100 µM,–,–,> 100,22.2,–,14.8,> 100,40.2,7.15,3.64,–,5.29,2.98,3.44,–,3.79,> 100,–,3.97
OC1=CN=COc2ccccc21,> 100 µM,> 100,> 100 µM,> 100,> 100,–,> 100,> 100,> 100,–,–,–,–,–,–,> 100,–,–,–,–
COc1cc(OC)c2sc(-c3ccc(-n4cncc4-c4ccc(OC)c(OC)c4)cc3)nc2c1,> 100 µM,–,> 100 µM,> 100,> 100,41.4,–,35.9,> 100,> 100,–,–,21.2,3.55,> 100,> 100,3.78,> 100,> 100,3.85
C=C1C(=O)C23[C@H](O)C1CC[C@H]2[C@]12COC3(O)[C@@H](O)[C@@H]1C(C)(C)CC[C@@H]2O,24 µM,10.1,33.3 µM,27.2,22.6,–,2.14,28.2,10.9,–,–,–,–,–,–,11,–,–,–,–
CC(=O)c1ccc(NC(=O)C(=O)C(C(=O)/C=C/c2ccccc2)C2OC(=O)c3ccccc32)cc1 (centres undefined),> 100 µM,> 100,> 100 µM,> 100,> 100,–,> 100,–,> 100,–,–,–,–,–,–,> 100,–,–,–,–
COc1ccc(C(=O)c2sc3nc(-c4ccccc4OC)ccc3c2N)cc1OC,> 100 µM,–,–,> 100,> 100,–,> 100,> 100,70,11.7,8.9,–,4.02,3.42,20,–,2.95,> 100,–,18.3
CC(=O)OC(C(=O)[O][Sn]([CH3])([CH3])[CH3])c1ccccc1 (centres undefined),> 100 µM,> 100,> 100 µM,> 100,> 100,–,> 100,> 100,0.959,> 100,> 100,> 100,> 100,–,> 100,–,–,–,> 100,> 100
CCOc1ccc(N=C(NC(=O)c2ccccc2)SC)cc1,> 100 µM,> 100,> 100 µM,> 100,> 100,–,> 100,> 100,> 100,–,–,–,–,–,–,> 100,–,–,–,–
COC/N=C(\NC#N)NCOC,> 74.6 µM,> 100,> 95.8 µM,> 100,> 100,–,> 85.1,> 100,> 63.3,–,–,–,–,–,–,> 100,–,–,–,–
COc1ccccc1-c1cc(=O)c2cc(C)c(C)c(C(=O)O)c2o1,> 100 µM,> 100,> 100 µM,> 100,> 100,–,> 100,> 100,–,–,–,–,–,–,–,> 100,–,–,–,–
CCCC1(CN2c3ccccc3Sc3ccc(Cl)cc32)CCN(CC)C1 (centres undefined),3.52 µM,–,3.37 µM,3.35,3.61,2.3,3.3,3.09,2.94,1.89,1.64,–,1.78,1.54,1.85,4.28,2.21,5.03,1.67,1.61
C=C1C(=O)O[C@H]2[C@H]1CC/C(COC(=O)NCc1ccc(Cn3c(=O)sn(CCCCC)c3=O)cc1)=C\CC[C@@]1(C)O[C@@H]21,4.23 µM,3.01,2.96 µM,5.46,3.2,2.41,3.33,2.75,–,1.98,1.78,1.38,2.26,–,1.64,5.46,1.75,4,1.59,1.41
COc1ccc(/C=C(\NC(=O)c2ccccc2)c2nc3ccccc3[nH]2)cc1OC,> 100 µM,> 100,> 100 µM,> 100,> 100,–,> 100,> 100,> 100,–,–,–,–,–,–,> 100,–,–,–,–
CCOc1ccc(N=C2NC(=O)C(CC(=O)Nc3ccccc3[N+](=O)[O-])S2)cc1 (centres undefined),> 100 µM,> 100,> 100 µM,> 100,> 100,–,–,> 100,> 100,–,–,–,–,–,–,> 100,–,–,–,–
O=C1CCC2(c3ccccc3)Nc3ccccc3N12 (centres undefined),> 100 µM,> 100,> 100 µM,> 100,> 100,–,> 100,> 100,> 100,–,–,–,–,–,–,> 100,–,–,–,–
Cc1cc(NCc2cc(Nc3ccnc4cc(Cl)ccc34)ccc2F)nc(N2CCOCC2)n1,3.12 µM,3.13,–,13.6,–,1.99,–,2.95,–,1.66,–,1.34,3.07,–,–,4.7,1.79,4.26,–,1.53
CCOc1cccc2c1N[S@@](=O)S2,> 100 µM,> 100,> 100 µM,–,> 100,–,–,> 100,–,–,–,–,–,–,–,> 100,–,–,–,–
CO[C@H]1/C=C/O[C@@]2(C)Oc3c(C)c(O)c4c(O)c(c(/C=N/N5CCN(C)CC5)c(O)c4c3C2=O)NC(=O)/C(C)=C\C=C\[C@H](C)[C@H](O)[C@@H](C)[C@@H](O)[C@@H](C)[C@H](OC(C)=O)[C@@H]1C,> 100 µM,–,–,> 100,–,–,> 100,> 100,> 100,–,–,–,–,–,–,> 100,–,> 100,–,–
CCC1=CCN(c2cc(C)ccn2)OC1c1ccccc1 (centres undefined),> 100 µM,–,> 100 µM,> 100,> 100,–,> 100,> 100,68,–,–,–,–,–,–,43.7,–,–,–,–
COc1cc2c(c3c1c(=O)c1ccccc1n3C)C=CC(C)(C)O2,> 100 µM,> 100,> 100 µM,> 100,> 100,–,> 100,> 100,89,–,–,–,–,–,–,> 100,–,–,–,–
